Results taken from patent publication US20090227503A1, “PARATHYROID HORMONE TREATMENT FOR ENHANCED ALLOGRAFT AND TISSUE-ENGINEERED RECONSTRUCTION OF BONE DEFECTS” (UNIVERSITY OF ROCHESTER, priority 2008, published 2009).

Tests used:
grafted femurs = test: Mouse femoral allograft, micro-CT of grafted femurs (Example 4); format: in vivo, mice
Description: Four-mm long bone allografts were harvested from donor mice, and were processed and implanted into […] defects 195 in the femur of other mice and secured in place using a stainless steel intramedullary pin 190, as shown in FIG. 13. One week after surgery, daily injections of 40 μg/kg hrPTH (1-34) (Lilly, Inc., Indianapolis, Ind.) were initiated in half of the mice, while the others received injections of saline control. Weekly x-rays were taken to monitor progression (Faxitron X-Ray LLC, Wheeling, Ill.). One cohort of the study groups used 14 mice from each treatment (PTH and control) for imaging and mechanical material testing and were sacrificed 6 weeks after surgery. Each femur was harvested by disarticulating the hip and knee and removing the intramedullary stainless-steel pin. Specimens were moistened with saline and frozen at -20° C. until thawed for micro-CT imaging and torsion testing. Specimens were scanned at […] isotropic resolution using the Scanco VivaCT 40 (Scanco Medical AG, Bassersdorf, Switzerland). From these 3D images, the graft and callus bone volumes (BVGraft, BVCallus) were measured by manual segmentation, followed by standardized thresholding at a grayscale corresponding to 750 mgHA/cm^3. The cross-sectional polar moment of […]) were computed for each slice throughout the grafted region and the maximum, minimum and average […]) were investigated to determine their contribution to the biomechanics of the grafted femurs. The Union Ratio was also calculated. The Union Ratio measures the graft surface area upon which mineralized callus has formed. If the voxels adjacent to the graft surface are boney callus, the area of that region of the graft is measured and normalized to the total graft surface area. Imaging data (not shown) indicated the bare surface of the graft in blue, with regions of union to the callus depicted as red. Each half (proximal and distal) of the graft was evaluated separately and the lesser ratio of union area to total graft surface area was given as the Union Ratio for that specimen. Callus formation that bridged from host-to-host over the graft was determined by evaluating serial axial cross sections from micro-CT images and given a binary result. These samples were then mechanically tested in torsion. Yield torque (TYield), ultimate torque (TUlt), torsional rigidity (TR), toughness (or work to failure) and the twist at ultimate torque were determined for each specimen. Finally, the mode of failure for each specimen was determined using an x-ray image analysis (not shown). Bone volume quantification was performed from micro-CT imaging. Quantification of micro-CT results for a control and PTH treated (FIGS. 16E-H) specimen was performed. Cross sectional polar moment of inertia, graft were determined. Callus and intramedullary callus bone volumes were quantified for each specimen in a region of interest that extended from the proximal axial slice containing bone graft through the distal slice. These regions were manually segmented and quantified for bone volume, bone mineral density and bone mineral content at a threshold corresponding to 750 mgHA/cm^3. The total depth of penetration of callus into the intramedullary cavity from both ends was also measured. The trabecular-like region within the shell of the exterior callus was segmented for trabecular analysis to quantify BVF, Tb.No., Tb.Th., and Tb.Sp.

[1] = tested on: callus vasculature of grafted femurs; test: Callus vascularization by micro-CT after vascular perfusion (Example 4); format: in vivo, mice; settings: for vessel volume within callus, more in saline treated than PTH treated specimens: not significant, n=4 per group
Description: A second cohort of 16 animals underwent the same surgery with sacrifice of 8 animals at 4 weeks and 8 animals at 6 weeks post-surgery to evaluate the degree of vascularization of the graft and callus region using vascular profusion as described previously (Duvall 2004). Half of the animals were treated with PTH, and the other half with saline.
On the day of sacrifice, animals were injected with a fatal dose of ketamine and xylazine and their vasculature was perfused using a syringe pump through a needle placed into the left ventricle of the heart. The right atrium was also punctured to allow the blood to drain out. They were first perfused with heparinized (100 units/ml) saline to prevent blood clotting, followed by 10% neutral-buffered formalin, and lastly with lead-chromate contrast agent (Microfil 122, Flow Tech, Inc. Carver, Mass.). Samples were fixed in 10% formalin overnight followed by harvest of the femur and pin extraction. Samples were micro-CT scanned once after fixation, and again after EDTA decalcification. Using both scans the vasculature was evaluated within the mineralized callus. The vessel volume, thickness, spacing and vessel number was determined.

[2] = 40 μg/kg hrPTH (1-34) daily from week 1, 6 weeks after surgery, mean, n = 14
[3] = vs saline, 6 weeks after surgery

`CC[C@H](C)[C@H](NC(=O)[C@H](CCC(=O)O)NC(=O)[C@H](CO)NC(=O)[C@@H](NC(=O)[C@@H](N)CO)C(C)C)C(=O)N[C@@H](CCC(N)=O)C(=O)N[C@@H](CC(C)C)C(=O)N[C@@H](CCSC)C(=O)N[C@@H](Cc1cnc[nH]1)C(=O)N[C@@H](CC(N)=O)C(=O)N[C@@H](CC(C)C)C(=O)NCC(=O)N[C@@H](CCCCN)C(=O)N[C@@H](Cc1cnc[nH]1)C(=O)N[C@@H](CC(C)C)C(=O)N[C@@H](CC(N)=O)C(=O)N[C@@H](CO)C(=O)N[C@@H](CCSC)C(=O)N[C@@H](CCC(=O)O)C(=O)N[C@@H](CCCN=C(N)N)C(=O)N[C@H](C(=O)N[C@@H](CCC(=O)O)C(=O)N[C@@H](Cc1c[nH]c2ccccc12)C(=O)N[C@@H](CC(C)C)C(=O)N[C@@H](CCCN=C(N)N)C(=O)N[C@@H](CCCCN)C(=O)N[C@@H](CCCCN)C(=O)N[C@@H](CC(C)C)C(=O)N[C@@H](CCC(N)=O)C(=O)N[C@@H](CC(=O)O)C(=O)N[C@H](C(=O)N[C@@H](Cc1cnc[nH]1)C(=O)N[C@@H](CC(N)=O)C(=O)N[C@@H](Cc1ccccc1)C(=O)O)C(C)C)C(C)C` [PTH, PTH (1-34)] showed a BMCCallus (grafted femurs; [2]) of 2.7 mgHA, a BMDCallus (grafted femurs; [2]) of 667 mgHA/cc and a BVCallus (grafted femurs; [2]) of 1.04 mm^3/mm. The BVGraft (grafted femurs; [2]) was 0.82 mm^3/mm, the BVIntramed (grafted femurs; [2]) was 0.2 mm^3/mm and the “Callus Tb. N.” value (grafted femurs; [2]) was 13.2. The “Callus Tb. Sp.” value (grafted femurs; [2]) was 0.065, the “Callus Tb. Th.” value (grafted femurs; [2]) was 0.149 and the “Callus trabecular BVF” value (grafted femurs; [2]) was 0.576. The “Intramed Penetration Depth” value (grafted femurs; [2]) was 2.22 mm, the PMIAve (grafted femurs; [2]) was 1.16 mm^4 and the PMIMax (grafted femurs; [2]) was 2.17 mm^4. For the same molecule, the PMIMin (grafted femurs; [2]) was 0.51 mm^4, the “Union Ratio” value (grafted femurs; [2]) was 0.277 and the “ratio of callus BMCPTH:BMCSaline” value (grafted femurs; 6 weeks) was 1.67. For the same molecule, the “maximum outer radius of the callus” value (grafted femurs; 6 weeks, saline 1.8±0.2 mm) was 1.7±0.3 mm, the “specimens with bridging over the graft from host-to-host” value (grafted femurs; 6 weeks, saline 6 of 14) was 8 of 14 and the “Union Ratio greater in PTH treated animals” value (grafted femurs; across all samples, vs saline) was 2.8 fold. For the same molecule, the Intramedullary penetration depth (grafted femurs; grafts from PTH-treated animals, saline 1.7±0.6 mm) was 2.2±0.7 mm, the “Union Ratio of the single PTH-treated specimen of FIG. 15H” value (grafted femurs; one specimen, saline control specimen 0.02) was 0.31 and the “bone mineral density of the callus, less dense by” value (grafted femurs; vs saline, 6 weeks) was 14%. For the same molecule, the “bone volume fraction within the callus, greater by” value (grafted femurs; vs saline, 6 weeks) was 52%, the “graft bone volume (graft resorption)” value (grafted femurs; vs saline, 6 weeks) was “not different between treatment groups” and the “net callus total mineral content, greater by” value (grafted femurs; vs saline, 6 weeks) was 67%. The “increase in BVCallus” value (grafted femurs; [3]) was 93%, the “increase in BVIntramed” value (grafted femurs; [3]) was 217% and the “increase in PMIAve” value (grafted femurs; [3]) was 38%. The “increase in PMIMax” value (grafted femurs; [3]) was 26%, the “Union Ratio, greater by” value (grafted femurs; vs saline, 6 weeks, p<0.01) was 76% and the “Intramedullary penetration depth, greater by” value (grafted femurs; vs saline, p=0.12) was 28%. For the same molecule, the “vessel volume within callus, more in saline treated than PTH treated specimens” value ([1]; 4 weeks) was 74%, the “blood vessel diameter, greater in saline treated than PTH treated specimens” value ([1]; 4 weeks, p=0.05) was 55% and the “blood vessel diameter, greater in saline treated than PTH treated specimens” value ([1]; 6 weeks) was 78%. For the same molecule, the “vessel volume within callus, more in saline treated than PTH treated specimens” value ([1]; 6 weeks) was 88% and the “specimens in which the intramedullary blood vessel had bridged the length of the graft” value ([1]; by 6 weeks, saline 3 of 4) was 4 of 4.
